The source made the active and inactive calls.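 The calls were made as follows: active = EC50 no more than a set limit of log units above the highest dose; inactive = the rest.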
molecular target: S. pyogenes SKKanGAS, kanamycin survival, BacTiterGlo, 6 h; assay: S. pyogenes SKKanGAS kanamycin growth inhibitors – SKKanGAS strain, luminescence, dose confirmation, streptokinase promoter inhibitor project, dose response (AID 1902);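 also: lower survival reflects blocked streptokinase promoter driving kanamycin resistance gene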

Row | SMILES | EC50
1 | CN(C)Cc1nc2ccccc2c(=O)n1Cc1nc(-c2cc3ccccc3o2)cs1 | 1.82 µM
2 | CCSc1nnc(NC(=O)c2nc(-c3ccccc3)n(-c3ccccc3)n2)s1 | 3.49 µM
3 | Cc1oc(-c2ccccc2Cl)nc1Cn1cccc1C1=NC(c2ccccc2)CO1 (stereo not given) | > 15 µM (inactive)
4 | CCOC(=O)c1c(NC(=S)NCCc2ccccc2)sc2c1CC(C(C)C)OC2 (stereo not given) | 0.602 µM
5 | CCn1cc(CN2CCC(n3nccc3NC(=O)Cc3ccccc3)CC2)cn1 | > 15 µM (inactive)
6 | Cc1cccc(/C=c2\s/c(=C\C(=O)C(C)(C)C)[nH]c2=O)c1 | 2.34 µM
7 | COc1cccc(/C=C(/C(=O)OCC(=O)NC2CCCC(C)C2C)c2ccccc2)c1 (stereo not given) | 8.45 µM
8 | Cc1ccc(C2Oc3ccccc3C3=C2C(c2cccs2)n2ncnc2N3)cc1 (stereo not given) | 3.76 µM
9 | CC1(C)N=C(N)NC(Nc2ccccc2)=N1 | 3.75 µM
10 | COc1cccc(-c2coc3cc4oc(=O)c(CCC(=O)O)c(C)c4cc23)c1 | 5.12 µM
11 | Nc1ccc(-c2nc3nc(N)nc(N)c3nc2-c2ccc(N)cc2)cc1 | 3.77 µM
12 | Cc1cccc(NCC(=O)N/N=C\c2cccc(Oc3ccccc3)c2)c1 | 11.9 µM
13 | CCCCCCCCCCOC(=O)Cn1c(COc2ccc(C)cc2)[n+](C)c2ccccc21 | 5.67 µM
14 | Cc1ccnc(NC(=S)N2CCN(c3cccc(C(F)(F)F)c3)CC2)c1 | 1.65 µM
15 | CN1CCN(c2cc3c(cc2F)c(=O)c(C(=O)O)cn3CCF)CC1 | 4.37 µM
16 | O=[N+]([O-])c1cc(C(F)(F)F)ccc1NCCNC(=S)Nc1ccc(Cl)cc1 | 4.79 µM
17 | COC(=O)c1ccc(NC(=O)c2nc(S(=O)(=O)Cc3cccc(C)c3)ncc2Cl)cc1 | 1.04 µM
18 | O=C(NCc1ccc2c(c1)OCO2)C(=O)NCC1OCCN1S(=O)(=O)c1ccc(Br)cc1 (stereo not given) | > 15 µM (inactive)
19 | COc1cccc(C(=O)N2C(C(=O)O)CSC2c2ccccc2Cl)c1 (stereo not given) | > 15 µM (inactive)
20 | Cc1ccc(CNC(=O)c2ccc([N+](=O)[O-])o2)cc1 | 4.67 µM
21 | COc1ccc(-c2nc(/C=C3\C(C)=Nc4ccccc43)c(O)o2)cc1 | 3.5 µM
22 | COc1cccc(/C=C/C(=O)OCC(=O)Nc2nnc(-c3ccccc3)o2)c1 | 4.21 µM
23 | O=C(N/N=C\C=C\c1ccc([N+](=O)[O-])o1)c1cccs1 | 1.97 µM
24 | O=C(NC(=S)NNC(=O)c1ccco1)c1ccc(Br)cc1 | 0.772 µM
25 | Oc1c(Br)cc(Br)cc1/C=N/c1nc2c(s1)CCCC2 | 5.86 µM
26 | CCOC(=O)c1c(-c2ccc(C)cc2)csc1NC(=O)CCN1CCOCC1 | > 15 µM (inactive)
27 | CC(C)CCn1c(=O)c(C(=O)N/N=C/c2cccc(F)c2)c(O)c2ccccc21 | 1.17 µM

Row | SMILES | EC50
28 | c1ccc(-c2noc(-c3ccccc3-c3ccccc3)n2)cc1 | 3.7 µM
29 | COC(=O)c1cc(-c2cccc(OC)c2)c2c(=O)[nH]c(=O)n(C)c2n1 | 4.31 µM
30 | CCOc1cc(N2CCOCC2)c(OCC)cc1NC(=O)C1=NN(c2cccc(C)c2)C(=O)CC1 | 13.1 µM
31 | CC(C)(C)c1ccc(C(=O)Nc2ccc(F)cc2)s1 | > 15 µM (inactive)
32 | Cc1ccc(C(=O)NNC(=S)NC(=O)c2ccc(Cl)cc2)cc1 | 0.074 µM
33 | CC1=NN(c2nc3ccccc3[nH]2)C(=O)C1Cc1ccccc1 (stereo not given) | 0.507 µM
34 | COc1cc2c(C#N)c(N3CCN(c4ccccc4OC)CC3)nc(N)c2c(N)n1 | 4.67 µM
35 | CCCCC(=O)NC(=S)NNC(=O)CCc1ccccc1 | 5 µM
36 | COc1ccc(O)c(C(=O)CC(=O)c2ccccc2C)c1 | 4.76 µM
37 | Oc1c(CN2CCN(c3ccccn3)CC2)cc(Cl)c2cccnc12 | 5.58 µM
38 | CCCn1c(=O)c(C(=O)N/N=C/c2ccc(F)cc2)c(O)c2ccccc21 | 3.19 µM
39 | CCOC(=O)c1cc(-c2ccc3c(c2)OCCO3)nc2c1c(C)nn2CCC#N | 3.42 µM
40 | CN(Cc1ccc(OC(F)F)cc1)Cc1nc2c(Br)cc(Br)cc2c(=O)[nH]1 | 2.98 µM
41 | CN1CCN(C(c2ccc(Cl)cc2)c2cc(Cl)c3cccnc3c2O)CC1 (stereo not given) | 1.46 µM
42 | Cc1cccc(/C=N/NC(=O)c2ccccc2OCc2cccc(Br)c2)n1 | 6.56 µM
43 | O=C(Nc1ccc([N+](=O)[O-])cc1)Nc1nc(-c2ccc(Cl)s2)cs1 | 2.95 µM
44 | Cc1n[nH]c(C)c1CCCOc1ccccc1 | 5.14 µM
45 | c1ccc(Oc2nc(-c3ccccn3)nc3ccccc23)cc1 | 9.41 µM
46 | COc1ccc(O)c(CN2CCC(n3nccc3NC(=O)CCOc3ccccc3)CC2)c1 | > 15 µM (inactive)
47 | COc1ccccc1-c1nnc(NC(=O)CCS(=O)(=O)c2ccccc2)o1 | > 15 µM (inactive)
48 | O=C(NNc1c2ccccc2nc2ccccc12)c1ccc(O)cc1O | 3.15 µM
49 | Cc1cccc(OCC(=O)Nc2ccccc2N2CCCCC2)c1C | 4.8 µM
50 | Cc1ccc(C(C)C)cc1OCC(=O)Nc1ccccc1N1CCCC1 | 3.56 µM
51 | O=S(=O)(Nc1cccc2ncccc12)c1cccs1 | 2.76 µM
52 | S=C(NCc1ccco1)N1CCN(c2nc(-c3ccc(Cl)cc3)cs2)CC1 | 9.92 µM
53 | O=C(CSc1nnc(CNC(=O)c2ccccc2)o1)NCc1ccccc1 | > 15 µM (inactive)
54 | Oc1c(Br)cc(Br)cc1/C=N/NC(=S)N[C@H]1CC2C=CC1C2 (stereo not given in full) | 0.15 µM

Row | SMILES | EC50
55 | COc1cc(Cc2cc(N)nc(N)n2)cc(OC)c1OC | 4.31 µM
56 | COc1ccc(/C=N/n2c(C)nc3c([nH]c4ccccc43)c2=O)cc1CN1CCCC(C)(C)C1 | 7.93 µM
57 | CCc1nnc(NC(=O)c2sc3nc4cc(C)ccc4cc3c2N)s1 | 3.77 µM
58 | Cc1ccc(C(=O)NNC(=S)NC(=O)c2ccco2)cc1 | 0.905 µM
59 | COc1ccccc1CNC(=O)c1ccc(-c2ccccc2Cl)o1 | 9.96 µM
60 | c1ccc(-c2onc(-c3ccco3)c2-c2ccc3[nH]ccc3c2)cc1 | 4.2 µM
61 | CCCN(CCC)S(=O)(=O)c1ccc(C(=O)Nc2nnc(COC)o2)cc1 | 5 µM
62 | O=c1cc(-c2ccccc2)nc2c(-c3ccccc3)c(C(F)(F)F)[nH]n12 | 3.23 µM
63 | CC(=O)C(=Nc1ccc(Cl)cc1Cl)NNc1cccc(Cl)c1 | 5.07 µM
64 | CCCC(=O)NC(c1ccco1)c1cc(Cl)c2cccnc2c1O (stereo not given) | 1.5 µM
65 | O=C(COc1cccc(Cl)c1)Nc1ccccc1N1CCCCC1 | 5.29 µM
66 | CCCOC(=O)c1ccc(Oc2cn[nH]c2-c2ccc(O)cc2O)cc1 | 3.34 µM
67 | Oc1c(CN2CCCCC2)cc(Br)c2cccnc12 | 1.12 µM
68 | CCC(C)c1ccc(C(C)NC(=S)NC2CCCCC2)cc1 (stereo not given) | 9.12 µM
69 | CC1=NN(c2ccc([N+](=O)[O-])cc2)C(=O)/C1=C\N(C)C | 7.94 µM
70 | CC(C)(C)OC(=O)NCCCC[C@H](NC(=O)c1[nH]cnc1C(=O)Nc1ccc(Cl)cc1)C(=O)OC(C)(C)C | 2.19 µM
71 | COc1ccc(C(=O)c2coc3c2C(=O)C(=O)c2ccccc2-3)cc1 | 5.65 µM
72 | CCCCn1c(/C=N/Nc2nc3ccccc3[nH]2)nc2ccccc21 | 1.17 µM
73 | COc1cccc(OC)c1C(=O)Nc1cc(C)nn1-c1nc2ccccc2[nH]1 | 6.26 µM
74 | O=C(NC(=S)Nc1ccccc1N1CCCCC1)c1ccc(F)cc1Cl | 3.4 µM
75 | C#CCN1C(=O)S/C(=C\c2ccc(-c3ccc(Cl)c(C(=O)O)c3)o2)C1=O | 2.83 µM
76 | Cc1cccc(C)c1OCC(O)Cn1c2ccccc2c2ccccc21 (stereo not given) | 3.83 µM
77 | O=C(Nc1nc(-c2ccccn2)cs1)c1cccc(-n2cnnn2)c1 | 2.3 µM
78 | CC(C)=CCC12Oc3cc(O)ccc3C1(O)Oc1cc3c(c(O)c1C2=O)C=CC(C)(C)O3 (stereo not given) | 2.4 µM
79 | CC(C)c1ccc(OCC(=O)NNC(=S)NC(=O)c2ccco2)c(Br)c1 | < 0.06 µM
80 | COc1ccccc1C(=O)NNC(=O)C(=O)Nc1ccc(C)c(Cl)c1 | 1.65 µM
